From ChEMBL document CHEMBL1201862, “PubChem BioAssay data set” (2004)
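Results reflect a 48-hour exposure of cells in 96-well plates to compound at five concentrations. Here, GI50 denotes the concentration required for 50% inhibition of growth.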 Active and inactive are the calls of the source. Cut-off read from the data, not from the text of the source: active = GI50 up to about 1.1 µM and inactive = higher.

Experiments:
Assay in all cases: NCI-60 cell line screen, 48 h
[1] = system: DU-145
[2] = system: NCI-H460
[3] = system: SK-MEL-5
[4] = system: SNB-75
[5] = system: NCI-H23
[6] = system: KM12
[7] = system: EKVX
[8] = system: SR
[9] = system: SF-295
[10] = system: MDA-MB-435
[11] = system: HCC 2998
[12] = system: OVCAR-8
[13] = system: M14
[14] = system: K562
[15] = system: HCT-15
[16] = system: HOP-92
[17] = system: PC-3
[18] = system: RXF 393
[19] = system: OVCAR-4
[20] = system: HCT-116

Compound	GI50 [1]	GI50 [2]	GI50 [3]	GI50 [4]	GI50 [5]	GI50 [6]	GI50 [7]	GI50 [8]	GI50 [9]	GI50 [10]	GI50 [11]	GI50 [12]	GI50 [13]	GI50 [14]	GI50 [15]	GI50 [16]	GI50 [17]	GI50 [18]	GI50 [19]	GI50 [20]
O=C(Oc1ccc2c(c1)CN(Cc1ccccc1)CO2)c1ccccc1	17.9 µM (inactive)	18.7 µM (inactive)	17.1 µM (inactive)	17.1 µM (inactive)	15.8 µM (inactive)	20.7 µM (inactive)	16.7 µM (inactive)	18.2 µM (inactive)	17.8 µM (inactive)	21.8 µM (inactive)	14.5 µM (inactive)	16.7 µM (inactive)	18 µM (inactive)	17.6 µM (inactive)	16.9 µM	12.7 µM (inactive)	15.9 µM (inactive)	15.2 µM (inactive)	15.7 µM (inactive)	16 µM (inactive)
Cc1ccc(S(=O)(=O)NC(=O)NCCc2ccc(O)c(O)c2)cc1	> 100 µM (inactive)	> 100 µM (inactive)	37.2 µM (inactive)	> 100 µM (inactive)	> 100 µM (inactive)	> 100 µM (inactive)	> 100 µM (inactive)	> 100 µM (inactive)	> 100 µM (inactive)	51.3 µM (inactive)	> 100 µM (inactive)	97.3 µM (inactive)	> 100 µM (inactive)	> 100 µM (inactive)	> 100 µM	> 100 µM (inactive)	> 100 µM (inactive)	> 100 µM (inactive)	> 100 µM (inactive)	> 100 µM (inactive)
Cc1ccc(S(=O)(=O)NC2C(=O)c3ccccc3C(=O)C2n2ccnc2)cc1 (stereo not given)	17 µM (inactive)	> 100 µM (inactive)	48.5 µM (inactive)	> 100 µM (inactive)	25.4 µM (inactive)	> 100 µM (inactive)	> 100 µM (inactive)	67.8 µM (inactive)	> 100 µM (inactive)	17.9 µM (inactive)	> 100 µM (inactive)	> 100 µM (inactive)	> 100 µM (inactive)	> 100 µM (inactive)	> 100 µM	35.8 µM (inactive)	> 100 µM (inactive)	31.2 µM (inactive)	30.9 µM (inactive)	20.4 µM (inactive)
COc1ccc(/C=C2\CCC(Cc3ccccc3)(CN(C)C)C2=O)cc1 (stereo not given)	> 70.8 µM (inactive)	67.3 µM (inactive)	20.8 µM (inactive)	94.2 µM (inactive)	44 µM (inactive)	41.1 µM (inactive)	42.5 µM (inactive)	20.6 µM (inactive)	> 83.2 µM (inactive)	32.1 µM (inactive)	24.4 µM (inactive)	41.6 µM (inactive)	26.7 µM (inactive)	26.4 µM (inactive)	26.7 µM	53.3 µM (inactive)	83.9 µM (inactive)	35.1 µM (inactive)	56.8 µM (inactive)	28.8 µM (inactive)
